Where “and” joins values, the source holds several entries; their conditions need not be identical. Equal entries are not always repeated. Each block holds one molecule with its values, some of them ahead of it.
How the values were obtained:
Water solubility = format: physicochemical; conditions: pH 7.4, aqueous buffer
3T3 cells [1] = experiment: Cytotoxicity by CCK-8 kit, Example 3; format: cell-based; conditions: 48 hours
Experimental: Cytotoxicity: Cytotoxicity of EGL-3Pro and EGL-3Phe were tested by CCK-8 kit on 3T3 cells after incubating for 48 hours at different concentrations.

3T3 cells [2] = experiment: Cryopreservation, post-thaw recovery rate, Example 3; format: cell-based; conditions: frozen −80° C. in medium with 400 mM trehalose
Experimental: Cryopreservation: The cryopreservation effects of EGL-3Pro and EGL-3Phe were tested on 3T3 cells. The cells were incubated with 5 mM or 10 mM EGL-3Pro or 0.5 mM EGL-3Phe or medium only (two control groups) for 72 hours. After incubation, the cells were detached by treating […] pelleted by centrifuging (200×g). The cells were then resuspended in medium with 400 mM trehalose or 5% DMSO (for control 2 group) in cryovials and a small portion of cell suspension were used for counting pre-freeze cell number. The vials were directly put in −80° C. freezer and stored for at least 3 days. The cells were thawed in 37° C. water bath until ice melt, and resuspended in 10 mL fresh medium and pelleted by centrifuging (200×g). The cells were then resuspended in 1 mL fresh medium and counted by cell counter. The recovery rate was obtained by dividing post-thaw lived cell number by pre-freeze lived cell number.

NIH-3T3 cells [3] = experiment: Post-thaw total cell recovery of cryopreserved cells (trypan blue exclusion); format: cell-based; conditions: for Total recovery values compared with cells frozen in media containing 5% DMSO: incubated with 10 mM; for Post-thaw recovery (%) 0-hr / Post-thaw recovery (%) 24-hr / Post-thaw recovery (%) 48-hr: incubated with 10 mM for 48 h, frozen −80° C. 72 h in media with 400 mM trehalose, ±SEM
Experimental: The delivery of sugar alcohols into cells makes it possible to turn these molecules into intracellular CPAs. […] Total post-thaw cell recovery, defined as the ratio (%) of post-thaw live cells to the number of initially frozen live cells, which provides a more accurate measure of cryoprotective outcome than cell viability, was used to assess the cryoprotective effects of the diesters.
Systematic studies were then performed by incubating the cells (1) with each of diesters 1-4 (10 mM), (2) with unmodified sorbitol, mannitol, xylitol, or erythritol (10 mM), and (3) in medium without any of the diesters or sugar alcohols, at 37° C. for 48 h. The cells treated with diesters 1-4 and the four sugar alcohols were then transferred to freezing media consisting of DMEM, 10% FBS and 400 mM trehalose. The cells incubated with only the medium were divided into two portions, one being directly transferred to the freezing medium containing 400 mM trehalose (control 1) and the other being placed in a different freezing medium consisting of DMEM, 10% FBS and 5% DMSO but without trehalose (control 2). After being frozen at −80° C. for 72 h, the cells were thawed in a warm water bath at 37° C. until ice melted. The post-thaw cells were either immediately analyzed for their survival or were cultured in growth media (DMEM with 10% FBS) for 24 h and 48 h before being analyzed.
Incubation (for cryopreservation). NIH/3T3 cells were seeded into cell culture treated plates (100 mm) at a density of 2×10^4 cells/mL (10 mL/plate), allowed to adhere overnight and then incubated with different sample solutions (10 mL) for 48 hours at 37° C. under 5% CO2. Control cells were incubated with growth medium.
Cryopreservation. At the end of the incubation, the cells were rinsed with PBS (2 mL) and detached using 0.25% trypsin-EDTA (3 mL). The cells were pelleted (200×g, 5 min) and resuspended in growth medium with 400 mM trehalose except for the control-2 group. For control-2 group, cells were resuspended in growth medium with 5% DMSO (v/v). An aliquot of cells of each group was then removed for counting by a DeNovix Celldrop cell counter to obtain prefreeze number of viable cells. The remaining cell suspension was transferred into a 2 mL cryogenic vial. The vials were directly transferred to −80° C. freezer without controlling cooling rate and stored at −80° C. freezer for 3 days. To thaw, cryogenic vials were removed from −80° C. freezer and suspended in a 37° C. water bath until ice melt. To the contents of each vial 1 mL growth medium was added and centrifuged (200×g , 5 min). The supernatant was discarded and cell pellet was resuspended in 1 mL growth cell medium. An aliquot of cell suspension of each group was then removed for counting with a DeNovix Celldrop cell counter to obtain the number of viable cells at 0-hr post-thaw. The remaining cell suspension was split equally and resuspended into two cell culture treated plates (100 mm) with 10 mL growth medium in each plate. The plates were then maintained for either 24 hours or 48 hours at 37° C. under 5% CO2. After being cultured for either 24 hours or 48 hours, the cells were rinsed with PBS (2 mL) and detached using 0.25% trypsin-EDTA (3 mL). The cells were pelleted (200×g, 5 min) and resuspended in growth medium. The cell suspension was then analyzed by DeNovix Celldrop cell counter to obtain number of viable cells at either 24-hr or 48-hr post-thaw.
Trypan Blue Exclusion Assay. For all time points, a sample of cells was mixed 1:1 in 0.4% trypan blue and counted using a DeNovix Celldrop. Cell recovery was calculated as the ratio of viable cells to the number of cells initially frozen.

NIH-3T3 cells [4] = experiment: Cell size measurement after incubation with diesters; format: cell-based; conditions: 10 mM, 48 h incubation (FIG. 11)
Experimental: Incubation (for cell size measurement). NIH/3T3 cells were seeded into 6-well plates at a density of 5×10^4 cells/mL (2 mL/well), allowed to adhere overnight and then incubated with different sample solutions (2 mL) for 48 hours at 37° C. under 5% CO2. Control cells were incubated with culture medium.
Cell size measurement. At the end of the incubation, the cells were rinsed with PBS (1 mL) and detached by 0.25% trypsin-EDTA (1 mL). The cells were pelleted (200×g, 5 min) and resuspended in PBS (1 mL). The average cell size of the cell suspension was then obtained with a DeNovix Celldrop cell counter. Bright field/counted image and histogram for one count were attached as an example (FIG. 19). Average cell diameter and statistical analysis were obtained from the histograms.

NIH-3T3 cells [5] = experiment: Cell growth curve; format: cell-based; conditions: 10 mM, incubated for up to 72 hrs (FIG. 17)
Experimental: Cell growth curve. NIH/3T3 cells were seeded into 6-well plates at a density of 5×10^4 cells/mL (2 mL/well), allowed to adhere overnight and then incubated with different sample solutions (2 mL) up to 72 hours at 37° C. under 5% CO2. Control cells were incubated with culture medium. After certain time incubation, cells were rinsed with PBS (1 mL), detached by 0.25% trypsin-EDTA (1 mL), pelleted (200×g, 5 min) and resuspended in PBS (1 mL). The cell number were obtained by a DeNovix Celldrop cell counter. The 0 hour was set as the time point just after overnight adhering.

NIH-3T3 cells [6] = experiment: Live/dead fluorescence microscopy of post-thaw cells (calcein-AM / ethidium homodimer-1); format: cell-based; conditions: 24 h post-thaw; incubated with 10 mM for 48 h, frozen in media with 400 mM trehalose (FIG. 14)
Experimental: DIC and Fluorescence images capturing. NIH/3T3 cells were treated as the same as for cryopreservation experiment and were thawed in a 37° C. water bath until ice melt. Cells in each vial were then pelleted (200×g, 5 min), re-suspended in 1 mL fresh growth medium and plated into 96 well plate and grown for 24 hours. Each well was washed with sterile PBS (100 μL). Sterile PBS (200 μL) containing 2 μM calcein-AM and 4 μM ethidium homodimer-1 (EthD-1) was then added to each well. The 96-well plate was then incubated in a CO2 incubator at 37° C. for 30 min. Fresh cells without freezing were plated at similar density in 96-well plate as comparison. DIC and fluorescence microscopy images were captured at 509 and 580 nm on Axioplan 2 fluorescent microscope (Zeiss [Carl Zeiss], Thornwood, NY) with an Axiocam MRm camera (Zeiss). Axiovision 4 software (Zeiss) was used for image acquisition. Digital images were processed with ImageJ (imagej.nih.gov/ij/).

NIH-3T3 cells [7] = experiment: Post-thaw viability of cryopreserved NIH-3T3 cells (CCK-8), Example 1; format: cell-based; conditions: Table 3, frozen −80° C. 72 hours, 400 mM trehalose, 10% DMSO set as 100%
Experimental: Cryopreservation protocol. […] Discarded 95% of the old media and added 0.5 mL new DMEM (pH=7.4) with 10% FBS and 400 mM trehalose (filtered with 0.22 μm filter) and re-suspended the cells. • Transferred the cell culture to cryo-tube and stored the tubes at −80° C. for 3 days. • Thawed the cells at 37° C. in a water bath until ice melted. • Counted the cell density in each cryo-tube with cell counter. • Re-cultured the cells in 96-well plate with fresh DMEM (PH=7.4) with 10% FBS. (while keeping cell density the approximately the same for each well). • Used CCK-8 kit to test the post-thaw viability after certain time.

NIH-3T3 cells [8] = experiment: Post-thaw total cell recovery of cryopreserved cells (trypan blue exclusion); format: cell-based; conditions: incubated with 5 and 10 mM; frozen in media with 400 mM trehalose (FIG. 12)
[9] = incubated 36 hours at 5 mM without DMSO
[10] = incubated 36 hours at 10 mM without DMSO

solubility (Water solubility): ≤ 2 mM
SMILES: N[C@@H](Cc1ccccc1)C(=O)OCC(COC(=O)[C@@H](N)Cc1ccccc1)OC(=O)[C@@H](N)Cc1ccccc1 [EGL-3Phe]
Cytotoxicity (3T3 cells [1]; above 1 mM): apparent cytotoxicity
Cytotoxicity (3T3 cells [1]; at 0.1 mM): no toxicity
Cytotoxicity (3T3 cells [1]; at 0.5 mM): residual cytotoxicity
0-hour post thaw recovery (%) (3T3 cells [2]; incubated with 0.5 mM for 72 hours): 66.2 ± 10.1%

solubility (Water solubility): ≥ 10 mM
SMILES: O=C(OCC(COC(=O)[C@@H]1CCCN1)OC(=O)[C@@H]1CCCN1)[C@@H]1CCCN1 [EGL-3Pro]
Cytotoxicity (3T3 cells [1]; up to 10 mM): didn't show any toxicity
0-hour post thaw recovery (%) (3T3 cells [2]; incubated with 5 mM for 72 hours): 50.1 ± 6.6%
0-hour post thaw recovery (%) (3T3 cells [2]; incubated with 10 mM for 72 hours): 65.3 ± 7.3%

SMILES: CCC(=O)OC[C@@H](O)[C@@H](O)[C@H](O)[C@H](O)COC(=O)CC [MannPr2]
Total recovery values compared with cells frozen in media containing 5% DMSO (NIH-3T3 cells [3]): the same as those seen with 5% DMSO
Post-thaw recovery (%) 0-hr (NIH-3T3 cells [3]): 84% and 84.1 ± 3.3%
Post-thaw recovery (%) 24-hr (NIH-3T3 cells [3]): 73.6 ± 3.2%
Post-thaw recovery (%) 48-hr (NIH-3T3 cells [3]): 184% and 184.1 ± 14.2%
Average cell diameter relative to cells incubated with only the culture medium (NIH-3T3 cells [4]): small but statistically significant increases
Growth of cells relative to control (NIH-3T3 cells [5]): slightly suppressed
Post-thaw viability/recovery in fluorescence microscopy images (NIH-3T3 cells [6]): much higher recovery than those treated with mannitol or sorbitol

SMILES: CCC(=O)OC[C@@H](O)[C@@H](O)[C@H](O)[C@@H](O)COC(=O)CC [SorbPr2]
Post-thaw viability (%), 24 hours post thaw (NIH-3T3 cells [7]; [9]): 94.5 ± 9.1%
Post-thaw viability (%), 48 hours post-thaw (NIH-3T3 cells [7]; [9]): 130.1 ± 6.8%
Post-thaw viability (%), 24 hours post thaw (NIH-3T3 cells [7]; [10]): 128.9 ± 2.5%
Post-thaw viability (%), 48 hours post-thaw (NIH-3T3 cells [7]; [10]): 183.0 ± 2.9%
Total recovery values compared with cells frozen in media containing 5% DMSO (NIH-3T3 cells [3]): comparable to those obtained with cells frozen in media containing 5% DMSO
Post-thaw recovery (%) 0-hr (NIH-3T3 cells [3]): 72.4 ± 3.4%
Post-thaw recovery (%) 24-hr (NIH-3T3 cells [3]): 65.2 ± 2.2%
Post-thaw recovery (%) 48-hr (NIH-3T3 cells [3]): 153.2 ± 8.0%
Average cell diameter relative to cells incubated with only the culture medium (NIH-3T3 cells [4]): small but statistically significant increases
Growth of cells relative to control (NIH-3T3 cells [5]): slightly suppressed
Post-thaw viability/recovery in fluorescence microscopy images (NIH-3T3 cells [6]): much higher recovery than those treated with mannitol or sorbitol
Post-thaw 0 h and 48 h total recovery rates compared with cells incubated only with the media (NIH-3T3 cells [8]): above those of cells incubated only with the media

— patent US20240065261A1, “PENETRATING CRYOPROTECTION AGENTS AND METHODS OF MAKING AND USING SAME” (The Research Foundation for The State University of New York, priority 2020, published 2024)
